# According to ChEMBL document CHEMBL4433230, “Revisiting microtubule targeting agents: α-Tubulin and the pironetin binding site as unexplored targets for cancer therapeutics” (Bioorg Med Chem Lett, 2019):
# Assays:
# [1] = Toxicity in CDF1-SLC mouse injected with mouse P388 cells assessed as change in body weight at 1.56 mg/kg, ip treated for 5 days and measured on day 1 and 10 (reference value: 5.3g); format: organism-based; settings: in vivo, 120 h
# [2] = Cytotoxicity against human H69/Txl cells assessed as reduction in growth after 7 days by MTT assay; format: functional; settings: 168 h
# DC3F = experiment: Cytotoxicity against hamster DC-3F cells assessed as reduction in growth after 4 days by HCS assay; format: functional; settings: Cricetulus griseus, 96 h
# P388 [3] = experiment: Cytotoxicity against mouse P388 cells assessed as reduction in growth after 24 hrs by MTT assay; format: functional; settings: P388, 24 h
# T98G = experiment: Cytotoxicity against human T98G cells assessed as reduction in growth after 4 days by MTS assay; format: functional; settings: 96 h
# Mus musculus = experiment: Immunosuppressive activity in […] mouse injected with C57BL/6 mouse EL4 cells assessed as cytotoxic T cells generation by measuring specific lysis level at 5 mg/kg, ip treated for 2 to 15 days and measured on day 16 by gamma scintillation counter method (reference value: 18.6 +/- 4.15%); format: functional
# P388 [4] = experiment: Antitumor activity in CDF1-SLC mouse injected with mouse P388 cells assessed as mean survival time at 1.56 mg/kg, ip treated for 5 days (reference value: 11.2 +/- 0.84 days); format: functional
# HeLa = experiment: Cytotoxicity against human HeLa cells assessed as reduction in growth; format: functional
# A549 = experiment: Cytotoxicity against human A549 cells assessed as reduction in growth after 4 days by HCS assay; format: functional; settings: A549, 96 h
# [5] = Toxicity in CDF1-SLC mouse injected with mouse P388 cells assessed as change in body weight at 3.13 mg/kg, ip treated for 5 days and measured on day 1 and 10 (reference value: 5.3g); format: organism-based; settings: in vivo, 120 h
# P388 [6] = experiment: Antitumor activity in CDF1-SLC mouse injected with mouse P388 cells assessed as mean survival time at 3.13 mg/kg, ip treated for 5 days (reference value: 11.2 +/- 0.84 days); format: functional
# [7] = Cytotoxicity against rat KNRK cells assessed as reduction in growth; format: functional
# EL4 = experiment: Cytotoxicity against C57BL/6 mouse EL4 cells assessed as reduction in growth after 3 days; format: functional; settings: C57BL/6, EL4, 72 h
# MCF7 = experiment: Cytotoxicity against human MCF7 cells assessed as reduction in growth after 3 days by MTT assay; format: functional; settings: MCF7, 72 h
# [8] = Cytotoxicity against human H69/VDS cells assessed as reduction in growth after 7 days by MTT assay; format: functional; settings: 168 h
# P388 [9] = experiment: Antitumor activity in CDF1-SLC mouse injected with mouse P388 cells assessed as mean survival time at 0.78 mg/kg, ip treated for 5 days (reference value: 11.2 +/- 0.84 days); format: functional
# K562 = experiment: Cytotoxicity against human K562 cells assessed as reduction in growth after 4 days by MTT assay; format: functional; settings: K562, 96 h
# [10] = Cytotoxicity against hamster VCRd5L cells assessed as reduction in growth after 4 days by HCS assay; format: functional; settings: Cricetulus griseus, 96 h
# P388 [11] = experiment: Antitumor activity in CDF1-SLC mouse injected with mouse P388 cells assessed as mean survival time at 6.25 mg/kg, ip treated for 5 days (reference value: 11.2 +/- 0.84 days); format: functional
# NCI-H69 = experiment: Cytotoxicity against human H69 cells assessed as reduction in growth after 7 days by MTT assay; format: functional; settings: NCI-H69, 168 h
# HL-60 = experiment: Cytotoxicity against human HL60 cells assessed as reduction in growth after 24 hrs by MTT assay; format: functional; settings: HL-60, 24 h
# K562/Adr = experiment: Cytotoxicity against human K562/ADR cells assessed as reduction in growth after 4 days by MTT assay; format: functional; settings: 96 h
# [12] = Toxicity in CDF1-SLC mouse injected with mouse P388 cells assessed as change in body weight at 0.78 mg/kg, ip treated for 5 days and measured on day 1 and 10 (reference value: 5.3g); format: organism-based; settings: in vivo, 120 h
# MDA-MB-231 = experiment: Cytotoxicity against human MDA-MB-231 cells assessed as reduction in growth after 4 days by HCS assay; format: functional; settings: MDA-MB-231, 96 h
# [13] = Toxicity in CDF1-SLC mouse injected with mouse P388 cells assessed as change in body weight at 6.25 mg/kg, ip treated for 5 days and measured on day 1 and 10 (reference value: 5.3g); format: organism-based; settings: in vivo, 120 h
structure (smiles),measurement,setting,value
C/C=C/C[C@H](C)[C@@H](OC)[C@@H](C)[C@H](O)C[C@H]1OC(=O)C=C[C@H]1CC [PIRONETIN],Activity,[1],0.5 g
same,GI50,[2],11.5 nM
same,GI50,DC3F,9.5 nM
same,GI50,P388 [3],100 nM
same,GI50,T98G,7.5 nM
same,Activity,Mus musculus,7.4%
same,MST,P388 [4],11.7 days
same,GI50,HeLa,30 nM
same,GI50,A549,7.5 nM
same,Activity,[5],-0.1 g
same,MST,P388 [6],13.3 days
same,GI50,[7],30 nM
same,GI50,EL4,15 nM
same,GI50,MCF7,5 nM
same,GI50,[8],20.3 nM
same,MST,P388 [9],11.2 days
same,GI50,K562,17.3 nM
same,GI50,[10],31 nM
same,MST,P388 [11],14.3 days
same,GI50,NCI-H69,17.5 nM
same,GI50,HL-60,20 nM
same,GI50,K562/Adr,16 nM
same,Activity,[12],3.7 g
same,GI50,MDA-MB-231,4.6 nM
same,Activity,[13],-2.6 g
